# Test results as given in patent publication US20150250210A1, “FLAVOUR ADDITIVES” (MARS INCORPORATED, priority 2012, published 2015).
# Test system: T1R1/T1R3 umami receptor
# Assay: in silico modelling and in vitro screening for binding and activation of the umami receptor
# Format: cell-based, cat
# Conditions: for ability to bind to and activate the umami receptor: non-human umami receptor, in silico modelling and in vitro assays
# Description: In vitro screening was carried out in order to establish which amino acids bind and activate the umami receptor.
# In vitro screening was carried out in order to establish which nucleotides bind and activate the umami receptor.
smiles,measurement,setting,value
C[C@H](N)C(=O)O [alanine],ability to bind to and activate the umami receptor,,able to bind to and activate the umami receptor to different extents
NC(=O)C[C@H](N)C(=O)O [asparagine],ability to bind to and activate the umami receptor,,able to bind to and activate the umami receptor to different extents
N[C@@H](CS)C(=O)O [cysteine],ability to bind to and activate the umami receptor,,able to bind to and activate the umami receptor to different extents
N[C@@H](CCC(=O)O)C(=O)O [glutamate],binding to the feline umami receptor,feline umami receptor,does not bind
NCC(=O)O [glycine],ability to bind to and activate the umami receptor,,able to bind to and activate the umami receptor to different extents
N[C@@H](Cc1c[nH]cn1)C(=O)O [histidine],ability to bind to and activate the umami receptor,,able to bind to and activate the umami receptor to different extents
CC(C)C[C@H](N)C(=O)O [leucine],ability to bind to and activate the umami receptor,,able to bind to and activate the umami receptor to different extents
CSCC[C@H](N)C(=O)O [methionine],ability to bind to and activate the umami receptor,,able to bind to and activate the umami receptor to different extents
N[C@@H](Cc1ccccc1)C(=O)O [phenylalanine],ability to bind to and activate the umami receptor,,able to bind to and activate the umami receptor to different extents
N[C@@H](CO)C(=O)O [serine],ability to bind to and activate the umami receptor,,able to bind to and activate the umami receptor to different extents
N[C@@H](Cc1c[nH]c2ccccc12)C(=O)O [tryptophan],ability to bind to and activate the umami receptor,,able to bind to and activate the umami receptor to different extents
N[C@@H](Cc1ccc(O)cc1)C(=O)O [tyrosine],ability to bind to and activate the umami receptor,,able to bind to and activate the umami receptor to different extents
